# Source: US20040253262A1, “Biological compositions and methods for treatment of lymphoma” (priority 2003, published 2004)
# What was measured:
# [1] = system: spontaneous lymphoma; assay: Inbred PBA mouse model of lymphoma, survival after treatment; type: in vivo; conditions: 36 at start
# Procedure: A model based on inbred PBA mice which manifest a high incidence of tumor was used (Bailey et al., 1970, J Natl. Cancer Inst. 45(1):59-73). Mice six to eight weeks old were treated by the method as described in Shiyan Dongwu Yu Zhongliu Yanjiu (Experimental Animal & Tumor Research), April 2000, by Chinese Medical Technology Publisher.
# In the first series, the mice in group AY received 0.3 ml of the oral composition of the invention per day. The mice in group NY received 0.3 ml per day of a composition comprising at a similar concentration the same strain of yeast which had not been activated and conditioned. The mice in group CTX received subcutaneous injection of cyclophosphamide at a dose of 30 mg per kg body weight per day. […] The experiment was carried out over a 30-day treatment period.
# In the second series, the mice in group 2AY received 0.5 ml of the oral composition of the invention per day. The mice in group 2NY received 0.5 ml per day of a composition comprising the same strain of yeast which had not been activated and conditioned at a similar concentration. The mice in group 2CTX received subcutaneous injection of cyclophosphamide at a dose of 45 mg per kg body weight per day. […] The experiment was carried out over a 60-day treatment period.
# After the 30-day or 60-day treatment, the mice were fed a normal diet and allowed to live under the same environment. The health and survival of the mice were observed and compared over 180 days.
# Each group consisted of 36 mice at the beginning of the experiment (3 repeats). The total number of surviving mice in each group were counted at the end of every month up to 6 months after treatment stopped.
# [2] = system: Burkitt's lymphoma cells; assay: Athymic nude mouse model with transplanted Burkitt's lymphoma cells, survival after treatment; type: in vivo; conditions: 36 at start
# Procedure: A model based on transplantation of Burkitt's lymphoma cell in athymic nude mice was used (Gurtsevitch et al., 1988, Int J Cancer 15;41(1):87-95). The model was set up as described in Shiyan Dongwu Yu Zhongliu Yanjiu (Experimental Animal & Tumor Research), April 2000, by Chinese Medical Technology Publisher. Essentially, seven week old mice were injected intravenously each with 1×10^6 Burkitt's lymphoma cells.
# Twenty-one days after the injection of lymphoma cells, the mice were divided into two series of five groups: one series received treatment for 30 days, the other series received treatment for 60 days. […] The mice in group A received saline orally. The mice in group B received subcutaneous injection of cyclophosphamide at a dose of 30 mg per kg body weight per day. Group C received subcutaneous injection of cyclophosphamide at a dose of 45 mg per kg body weight per day. The mice in group D received 0.3 ml of the oral composition per day. Group E received 0.5 ml of the oral composition per day.
# After the 30-day or 60-day treatment, the mice were fed a normal diet and allowed to live under the same environment. The health and survival of the nude mice were observed and compared over 360 days.
# Each group consisted of 36 mice at the beginning of the experiment (3 repeats). The total number of surviving mice in each group were counted at the end of every month up to 12 months after treatment stopped.
compound,measurement,setting,value
O=P1(N(CCCl)CCCl)NCCCO1 (stereo not drawn) [cyclophosphamide],total number of surviving mice,"[1]; 30 mg/kg per day per table head (45 mg/kg elsewhere in the source) s.c., 60-day treatment (group 2CTX), day 0 after treatment period",36
same,total number of surviving mice,"[1]; 30 mg/kg per day per table head (45 mg/kg elsewhere in the source) s.c., 60-day treatment (group 2CTX), day 30 after treatment period",36
same,total number of surviving mice,"[1]; 30 mg/kg per day per table head (45 mg/kg elsewhere in the source) s.c., 60-day treatment (group 2CTX), day 60 after treatment period",29
same,total number of surviving mice,"[1]; 30 mg/kg per day per table head (45 mg/kg elsewhere in the source) s.c., 60-day treatment (group 2CTX), day 90 after treatment period",21
same,total number of surviving mice,"[1]; 30 mg/kg per day per table head (45 mg/kg elsewhere in the source) s.c., 60-day treatment (group 2CTX), day 120 after treatment period",14
same,total number of surviving mice,"[1]; 30 mg/kg per day per table head (45 mg/kg elsewhere in the source) s.c., 60-day treatment (group 2CTX), day 150 after treatment period",14
same,total number of surviving mice,"[1]; 30 mg/kg per day per table head (45 mg/kg elsewhere in the source) s.c., 60-day treatment (group 2CTX), day 180 after treatment period",8
same,total number of surviving mice,"[1]; 30 mg/kg per day s.c., 30-day treatment, day 0 after treatment period",36
same,total number of surviving mice,"[1]; 30 mg/kg per day s.c., 30-day treatment, day 30 after treatment period",33
same,total number of surviving mice,"[1]; 30 mg/kg per day s.c., 30-day treatment, day 60 after treatment period",27
same,total number of surviving mice,"[1]; 30 mg/kg per day s.c., 30-day treatment, day 90 after treatment period",19
same,total number of surviving mice,"[1]; 30 mg/kg per day s.c., 30-day treatment, day 120 after treatment period",17
same,total number of surviving mice,"[1]; 30 mg/kg per day s.c., 30-day treatment, day 150 after treatment period",0
same,total number of surviving mice,"[1]; 30 mg/kg per day s.c., 30-day treatment, day 180 after treatment period",0
same,total number of surviving mice,"[2]; 30 mg/kg per day s.c. (group B), 30-day treatment, day 0 after treatment period",36
same,total number of surviving mice,"[2]; 30 mg/kg per day s.c. (group B), 30-day treatment, day 30 after treatment period",33
same,total number of surviving mice,"[2]; 30 mg/kg per day s.c. (group B), 30-day treatment, day 60 after treatment period",24
same,total number of surviving mice,"[2]; 30 mg/kg per day s.c. (group B), 30-day treatment, day 90 after treatment period",14
same,total number of surviving mice,"[2]; 30 mg/kg per day s.c. (group B), 30-day treatment, day 120 after treatment period",5
same,total number of surviving mice,"[2]; 30 mg/kg per day s.c. (group B), 30-day treatment, day 150 after treatment period",3
same,total number of surviving mice,"[2]; 30 mg/kg per day s.c. (group B), 30-day treatment, day 180 after treatment period",1
same,total number of surviving mice,"[2]; 30 mg/kg per day s.c. (group B), 30-day treatment, day 210 after treatment period",0
same,total number of surviving mice,"[2]; 30 mg/kg per day s.c. (group B), 30-day treatment, day 240 after treatment period",0
same,total number of surviving mice,"[2]; 30 mg/kg per day s.c. (group B), 30-day treatment, day 270 after treatment period",0
same,total number of surviving mice,"[2]; 30 mg/kg per day s.c. (group B), 30-day treatment, day 300 after treatment period",0
same,total number of surviving mice,"[2]; 30 mg/kg per day s.c. (group B), 30-day treatment, day 330 after treatment period",0
same,total number of surviving mice,"[2]; 30 mg/kg per day s.c. (group B), 30-day treatment, day 360 after treatment period",0
same,total number of surviving mice,"[2]; 30 mg/kg per day s.c. (group B), 60-day treatment, day 0 after treatment period",35
same,total number of surviving mice,"[2]; 30 mg/kg per day s.c. (group B), 60-day treatment, day 30 after treatment period",35
same,total number of surviving mice,"[2]; 30 mg/kg per day s.c. (group B), 60-day treatment, day 60 after treatment period",33
same,total number of surviving mice,"[2]; 30 mg/kg per day s.c. (group B), 60-day treatment, day 90 after treatment period",24
same,total number of surviving mice,"[2]; 30 mg/kg per day s.c. (group B), 60-day treatment, day 120 after treatment period",19
same,total number of surviving mice,"[2]; 30 mg/kg per day s.c. (group B), 60-day treatment, day 150 after treatment period",9
same,total number of surviving mice,"[2]; 30 mg/kg per day s.c. (group B), 60-day treatment, day 180 after treatment period",5
same,total number of surviving mice,"[2]; 30 mg/kg per day s.c. (group B), 60-day treatment, day 210 after treatment period",2
same,total number of surviving mice,"[2]; 30 mg/kg per day s.c. (group B), 60-day treatment, day 240 after treatment period",0
same,total number of surviving mice,"[2]; 30 mg/kg per day s.c. (group B), 60-day treatment, day 270 after treatment period",0
same,total number of surviving mice,"[2]; 30 mg/kg per day s.c. (group B), 60-day treatment, day 300 after treatment period",0
same,total number of surviving mice,"[2]; 30 mg/kg per day s.c. (group B), 60-day treatment, day 330 after treatment period",0
same,total number of surviving mice,"[2]; 30 mg/kg per day s.c. (group B), 60-day treatment, day 360 after treatment period",0
same,total number of surviving mice,"[2]; 45 mg/kg per day s.c. (group C), 30-day treatment, day 0 after treatment period",35
same,total number of surviving mice,"[2]; 45 mg/kg per day s.c. (group C), 30-day treatment, day 30 after treatment period",35
same,total number of surviving mice,"[2]; 45 mg/kg per day s.c. (group C), 30-day treatment, day 60 after treatment period",27
same,total number of surviving mice,"[2]; 45 mg/kg per day s.c. (group C), 30-day treatment, day 90 after treatment period",21
same,total number of surviving mice,"[2]; 45 mg/kg per day s.c. (group C), 30-day treatment, day 120 after treatment period",17
same,total number of surviving mice,"[2]; 45 mg/kg per day s.c. (group C), 30-day treatment, day 150 after treatment period",11
same,total number of surviving mice,"[2]; 45 mg/kg per day s.c. (group C), 30-day treatment, day 180 after treatment period",4
same,total number of surviving mice,"[2]; 45 mg/kg per day s.c. (group C), 30-day treatment, day 210 after treatment period",2
same,total number of surviving mice,"[2]; 45 mg/kg per day s.c. (group C), 30-day treatment, day 240 after treatment period",1
same,total number of surviving mice,"[2]; 45 mg/kg per day s.c. (group C), 30-day treatment, day 270 after treatment period",0
same,total number of surviving mice,"[2]; 45 mg/kg per day s.c. (group C), 30-day treatment, day 300 after treatment period",0
same,total number of surviving mice,"[2]; 45 mg/kg per day s.c. (group C), 30-day treatment, day 330 after treatment period",0
same,total number of surviving mice,"[2]; 45 mg/kg per day s.c. (group C), 30-day treatment, day 360 after treatment period",0
same,total number of surviving mice,"[2]; 45 mg/kg per day s.c. (group C), 60-day treatment, day 0 after treatment period",34
same,total number of surviving mice,"[2]; 45 mg/kg per day s.c. (group C), 60-day treatment, day 30 after treatment period",34
same,total number of surviving mice,"[2]; 45 mg/kg per day s.c. (group C), 60-day treatment, day 60 after treatment period",34
same,total number of surviving mice,"[2]; 45 mg/kg per day s.c. (group C), 60-day treatment, day 90 after treatment period",27
same,total number of surviving mice,"[2]; 45 mg/kg per day s.c. (group C), 60-day treatment, day 120 after treatment period",19
same,total number of surviving mice,"[2]; 45 mg/kg per day s.c. (group C), 60-day treatment, day 150 after treatment period",12
same,total number of surviving mice,"[2]; 45 mg/kg per day s.c. (group C), 60-day treatment, day 180 after treatment period",7
same,total number of surviving mice,"[2]; 45 mg/kg per day s.c. (group C), 60-day treatment, day 210 after treatment period",3
same,total number of surviving mice,"[2]; 45 mg/kg per day s.c. (group C), 60-day treatment, day 240 after treatment period",0
same,total number of surviving mice,"[2]; 45 mg/kg per day s.c. (group C), 60-day treatment, day 270 after treatment period",0
same,total number of surviving mice,"[2]; 45 mg/kg per day s.c. (group C), 60-day treatment, day 300 after treatment period",0
same,total number of surviving mice,"[2]; 45 mg/kg per day s.c. (group C), 60-day treatment, day 330 after treatment period",0
same,total number of surviving mice,"[2]; 45 mg/kg per day s.c. (group C), 60-day treatment, day 360 after treatment period",0
